Measured values published in patent publication US20170101521A1, “THERMAL BASE GENERATOR, THERMOSETTING RESIN COMPOSITION, CURED FILM, CURED FILM MANUFACTURING METHOD, AND SEMICONDUCTOR DEVICE” (FUJIFILM Corporation, priority 2014, published 2017).

What was measured:
[1] = Base generation temperature by differential scanning calorimetry; type: physicochemical; settings: DSC, heated to 250° C. at 5° C./min in pressure-resistant capsule; peak temperature of lowest exothermic peak
Method: The base generation temperature may be measured, for example, by heating a compound to 250° C. at a rate of 5° C./minute in a pressure-resistant capsule, reading a peak temperature of an exothermic peak having the lowest temperature, and taking the peak temperature as a base generation temperature, using differential scanning calorimetry.
Using differential scanning calorimetry (Q2000, manufactured by TA), (A) a thermal base generator was heated to 250° C. at 5° C./min in a pressure-resistant capsule. The peak temperature of an exothermic peak having the lowest temperature was read to measure such a peak temperature as a base generation temperature.

[2] = literature value, or calculated with ACD/pKa for compounds not listed; cited from earlier work

| Compound | Base generation temperature [1] | pKa1 of anion [2] |
| --- | --- | --- |
| O=C(O)CN(CC(=O)O)c1ccc(Cc2ccc(N(CC(=O)O)CC(=O)O)cc2)cc1 [A-8] | 145 °C |  |
| O=C(O)CNc1ccccc1 [X-6, reference compound] | Higher than 200 °C |  |
| C1CCC2=[N+](CC1)CCCN2.O=C([O-])CCC(=O)O [A-12] | 150 °C |  |
| C=Cc1ccc(NCC(=O)O)cc1 [X-5, reference compound] | Higher than 200 °C |  |
| CCCCCCCC[N+](C)(C)CC(=O)c1ccccc1.O=C([O-])/C=C\C(=O)O [A-39] | 150 °C | 1.9 |
| CC(C)(c1ccc(N(CC(=O)O)CC(=O)O)cc1)c1ccc(N(CC(=O)O)CC(=O)O)cc1 [A-9] | 140 °C |  |
| Cc1ccc(NC(CC(=O)O)C(=O)O)cc1 (stereo not drawn) [A-10] | 200 °C |  |
| CCCCCCCCCCCC[N+](C)(C)CC(=O)c1ccc2ccccc2c1.O=C([O-])/C=C\C(=O)O [A-23] | 140 °C | 1.9 |
| O=C(C[n+]1ccccc1)c1ccccc1.O=C([O-])C(=O)O [A-27] | 140 °C | 1.2 |
| CCC(O)C[N+](C)(C)[N-]C(=O)c1ccccc1OC (stereo not drawn) [X-1, reference compound] | 80 °C |  |
| C1CCC2=[N+](CC1)CCCN2.O=C([O-])C(=O)O [A-34] | 80 °C | 1.2 |
| C[N+]1(C)CCCCC1.O=C([O-])C(=O)O [A-32] | 190 °C | 1.2 |
| O=C(C[N+]1=C2CCCN2CCC1)c1ccccc1.O=C([O-])C(=O)O [A-29] | 140 °C | 1.2 |
| C[N+](C)(CC(=O)c1ccccc1)C1CCCCC1.O=C([O-])/C=C\C(=O)O [A-40] | 150 °C | 1.9 |
| CC(=O)c1ccc(N(CC(=O)O)CC(=O)O)cc1 [A-7] | 155 °C |  |
| CN(CC(=O)O)CC(=O)O [X-7, reference compound] | Higher than 200 °C |  |
| C1CNC2=[N+](C1)CCCN2.O=C([O-])/C=C\C(=O)O [X-9, reference compound] | Lower than 40 °C |  |
| C[n+]1ccccc1.O=C([O-])C(=O)O [A-37] | 180 °C | 1.2 |
| O=C(C[N+]1=C2CCCCCN2CCC1)c1ccccc1.O=C([O-])C(=O)O [A-28] | 140 °C | 1.2 |
| CCCCCCCCCCCC[N+](C)(C)CC(=O)c1ccccc1.O=C([O-])CCC(=O)O [A-22] | 130 °C | 4.2 |
| CCCCCCCCCCCC[N+](C)(C)CC(=O)c1ccccc1.O=C([O-])C(=O)O [A-21] | 150 °C | 1.2 |

| Compound | Base generation temperature [1] | pKa1 of anion [2] |
| --- | --- | --- |
| CCCCCCCCCCCC[N+](C)(C)CC(=O)c1ccccc1.O=C([O-])/C=C\C(=O)O [A-18] | 150 °C | 1.9 |
| O=C(O)CC(Nc1ccccc1)C(=O)O (stereo not drawn) [A-11] | 200 °C |  |
| CCN(CC)CC.O=C(O)CCC(=O)O [A-13] | 170 °C |  |
| C=CCN(CC(=O)O)CC(=O)O [A-17] | 190 °C |  |
| O=C(O)CN(CC(=O)O)c1ccccc1 [A-1] | 145 °C |  |
| O=C(O)CN(CC(=O)O)c1ccc(C(F)(F)F)cc1 [A-6] | 155 °C |  |
| C[N+]1(CC(=O)c2ccccc2)CCCCC1.O=C([O-])C(=O)O [A-30] | 140 °C | 1.2 |
| CC[N+](CC)(CC)C(c1ccccc1)c1ccccc1.O=C([O-])C(=O)O [A-36] | 170 °C | 1.2 |
| C[N+](C)(CC(=O)c1ccccc1)Cc1ccccc1.O=C([O-])/C=C\C(=O)O [A-41] | 150 °C | 1.9 |
| O=C(O)CN(CCN(CC(=O)O)CC(=O)O)CC(=O)O [X-8, reference compound] | Higher than 200 °C |  |
| C=C(C)C(=O)OC(CO)N(CC(=O)O)c1ccccc1 (stereo not drawn) [X-4, reference compound] | Higher than 200 °C |  |
| O=C(O)CN(CC(=O)O)c1ccc(-c2ccccc2)cc1 [A-4] | 150 °C |  |
| CCCCCC[N+](C)(C)CC(=O)c1ccccc1.O=C([O-])/C=C\C(=O)O [A-38] | 150 °C | 1.9 |
| Cc1ccc(N(CC(=O)O)CC(=O)O)cc1 [A-2] | 140 °C |  |
| O=C(O)CN(CC(=O)O)c1cc(C(F)(F)F)cc(C(F)(F)F)c1 [A-5] | 155 °C |  |
| CCCCC(CC)C[N+](C)(C)CC(=O)c1ccccc1.O=C([O-])/C=C\C(=O)O (stereo not drawn) [A-42] | 150 °C | 1.9 |
| C1CN2CCN1CC2.O=C(O)C(=O)O [A-33] | 70 °C | 1.2 |
| COc1ccc(N(CC(=O)O)CC(=O)O)cc1 [A-3] | 140 °C |  |
| O=C(O)CN(CC(=O)Nc1ccccc1)c1ccccc1 [A-16] | 130 °C |  |
| O=C(C[N+]12CCN(CC1)CC2)c1ccccc1.O=C([O-])C(=O)O [A-31] | 140 °C | 1.2 |
